Assay results: ChEMBL document CHEMBL5154726, “Identification of triazolopyridine derivatives as a new class of AhR agonists and evaluation of anti-psoriasis effect in a mouse model” (Eur J Med Chem, 2022)
Calls of active or inactive are those of the source. The calls are words filed in the database; no cut-off is given here.

Legend:
[1] = Tmax in Sprague-Dawley rat at 10 mg/kg, po measured up to 24 hrs by LC-MS/MS analysis; format: ADME, organism-based; details: in vivo
[2] = molecular target: Cytochrome P450 2C19 (Homo sapiens, UniProt P33261); assay: Inhibition of CYP2C19 in human liver microsomes in presence of NADPH by LC-MS/MS analysis; format: ADME, Microsome
Sequence of Cytochrome P450 2C19 (P33261 whole entry): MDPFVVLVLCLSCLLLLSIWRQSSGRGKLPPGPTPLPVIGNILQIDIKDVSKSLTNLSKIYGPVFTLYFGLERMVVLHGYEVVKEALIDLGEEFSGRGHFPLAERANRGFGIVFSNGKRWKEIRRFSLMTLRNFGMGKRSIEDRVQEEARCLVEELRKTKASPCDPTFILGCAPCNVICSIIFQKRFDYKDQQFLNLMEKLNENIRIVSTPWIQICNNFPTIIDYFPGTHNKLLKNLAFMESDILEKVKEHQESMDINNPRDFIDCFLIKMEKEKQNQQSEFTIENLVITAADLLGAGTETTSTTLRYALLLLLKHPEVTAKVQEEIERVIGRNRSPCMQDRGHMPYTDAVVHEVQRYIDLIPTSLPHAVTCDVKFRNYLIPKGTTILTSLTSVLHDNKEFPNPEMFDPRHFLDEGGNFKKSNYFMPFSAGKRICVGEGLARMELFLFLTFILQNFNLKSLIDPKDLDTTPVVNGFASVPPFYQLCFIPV

[3] = Cytotoxicity against human BEAS-2B cells assessed as reduction in cell viability measured after 72 hrs by MTT assay; format: toxicity, cell-based
[4] = molecular target: T1, Aryl hydrocarbon receptor (Homo sapiens, UniProt P35869); assay: Induction of Ahr signalling in human HaCaT cells assessed as upregulation of IVL expression incubated for 48 hrs; format: cell-based
T1 sequence (P35869 whole entry): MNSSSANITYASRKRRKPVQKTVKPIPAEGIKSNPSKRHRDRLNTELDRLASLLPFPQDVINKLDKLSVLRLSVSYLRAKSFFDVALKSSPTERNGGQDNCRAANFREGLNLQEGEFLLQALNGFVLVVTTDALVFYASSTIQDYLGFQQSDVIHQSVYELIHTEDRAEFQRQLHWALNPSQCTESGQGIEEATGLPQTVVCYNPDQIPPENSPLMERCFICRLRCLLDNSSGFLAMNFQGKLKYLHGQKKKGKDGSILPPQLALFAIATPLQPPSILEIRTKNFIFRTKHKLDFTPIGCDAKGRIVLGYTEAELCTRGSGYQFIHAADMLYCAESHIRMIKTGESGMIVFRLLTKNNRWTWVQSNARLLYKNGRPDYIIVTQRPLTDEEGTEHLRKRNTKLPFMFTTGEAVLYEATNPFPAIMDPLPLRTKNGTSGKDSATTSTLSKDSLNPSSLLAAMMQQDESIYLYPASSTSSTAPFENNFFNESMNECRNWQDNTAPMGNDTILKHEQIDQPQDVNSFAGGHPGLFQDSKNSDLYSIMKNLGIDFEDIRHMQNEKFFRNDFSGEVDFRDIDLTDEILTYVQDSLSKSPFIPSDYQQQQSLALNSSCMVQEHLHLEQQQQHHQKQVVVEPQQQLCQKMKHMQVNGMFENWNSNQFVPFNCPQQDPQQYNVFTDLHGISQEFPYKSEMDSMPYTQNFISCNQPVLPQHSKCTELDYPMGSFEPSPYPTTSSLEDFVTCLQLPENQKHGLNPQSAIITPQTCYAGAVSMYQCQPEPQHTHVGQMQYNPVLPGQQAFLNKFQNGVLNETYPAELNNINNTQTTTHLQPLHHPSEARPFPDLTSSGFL

[5] = test system: Mus musculus; assay: Anti-psoriatic activity in IMQ-induced BALB/c psoriasis mouse model assessed as reduction in scaling at 5 to 20 mg/kg, po by H and E staining based analysis; format: functional, organism-based; details: dose 5-20 mg/kg
[6] = MRT in Sprague-Dawley rat at 10 mg/kg, po measured up to 24 hrs by LC-MS/MS analysis; format: ADME, organism-based; details: in vivo
[7] = AUC (0 to t) in Sprague-Dawley rat at 10 mg/kg, po measured up to 24 hrs by LC-MS/MS analysis; format: ADME, organism-based; parameters: dose 10 mg/kg, time < 24 hrs, route po; details: in vivo
[8] = MRT in Sprague-Dawley rat at 5 mg/kg, iv measured up to 24 hrs by LC-MS/MS analysis; format: ADME, organism-based; details: in vivo
[9] = molecular target: Cytochrome P450 3A4 (Homo sapiens, UniProt P08684); assay: Inhibition of CYP3A4 in human liver microsomes in presence of NADPH by LC-MS/MS analysis; format: ADME, Microsome
Sequence of Cytochrome P450 3A4 (P08684 whole entry): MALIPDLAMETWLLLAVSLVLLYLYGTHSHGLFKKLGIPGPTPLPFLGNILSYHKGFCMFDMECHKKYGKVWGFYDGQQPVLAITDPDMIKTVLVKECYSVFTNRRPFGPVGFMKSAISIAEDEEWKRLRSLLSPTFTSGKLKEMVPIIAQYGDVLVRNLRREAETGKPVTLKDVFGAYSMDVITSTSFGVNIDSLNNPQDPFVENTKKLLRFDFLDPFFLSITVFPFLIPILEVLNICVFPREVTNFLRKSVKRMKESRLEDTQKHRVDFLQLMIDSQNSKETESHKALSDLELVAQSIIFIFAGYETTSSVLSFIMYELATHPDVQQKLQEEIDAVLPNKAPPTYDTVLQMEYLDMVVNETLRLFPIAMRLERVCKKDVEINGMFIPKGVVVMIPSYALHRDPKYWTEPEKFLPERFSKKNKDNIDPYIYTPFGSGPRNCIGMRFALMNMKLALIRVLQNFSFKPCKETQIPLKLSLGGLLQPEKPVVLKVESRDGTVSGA

[10] = molecular target: T1, Aryl hydrocarbon receptor; assay: Induction of Ahr signalling in human HaCaT cells assessed as upregulation of HRNR expression incubated for 48 hrs; format: cell-based
[11] = test system: HaCaT; assay: Downregulation of CYP1A1 gene expression in AhR knockdown human HaCaT cells incubated for 48 hrs by qRT-PCR analysis; format: functional, cell-based
[12] = test system: Mus musculus; assay: Anti-psoriatic activity in IMQ-induced BALB/c psoriasis mouse model assessed as reduction in IL-17a expression at 5 to 20 mg/kg, po by qRT-PCR analysis; format: functional, organism-based; details: dose 5-20 mg/kg
[13] = test system: Mus musculus; assay: Anti-psoriatic activity in IMQ-induced BALB/c psoriasis mouse model assessed as reduction in erythema at 0.1 to 1 % treated topically by H and E staining based analysis; format: functional, organism-based; details: dose 0.1-1 %
[14] = test system: Mus musculus; assay: Anti-psoriatic activity in IMQ-induced BALB/c psoriasis mouse model assessed as reduction in IL-17f expression at 0.1 to 1 % treated topically by qRT-PCR analysis; format: functional, organism-based; details: dose 0.1-1 %
[15] = test system: Mus musculus; assay: Anti-psoriatic activity in IMQ-induced BALB/c psoriasis mouse model assessed as reduction in skin thickening at 0.1 to 1 % treated topically by H and E staining based analysis; format: functional, organism-based; details: dose 0.1-1 %
[16] = molecular target: Cytochrome P450 2C9 (Homo sapiens, UniProt P11712); assay: Inhibition of CYP2C9 in human liver microsomes in presence of NADPH by LC-MS/MS analysis; format: ADME, Microsome
Sequence of Cytochrome P450 2C9 (P11712 whole entry): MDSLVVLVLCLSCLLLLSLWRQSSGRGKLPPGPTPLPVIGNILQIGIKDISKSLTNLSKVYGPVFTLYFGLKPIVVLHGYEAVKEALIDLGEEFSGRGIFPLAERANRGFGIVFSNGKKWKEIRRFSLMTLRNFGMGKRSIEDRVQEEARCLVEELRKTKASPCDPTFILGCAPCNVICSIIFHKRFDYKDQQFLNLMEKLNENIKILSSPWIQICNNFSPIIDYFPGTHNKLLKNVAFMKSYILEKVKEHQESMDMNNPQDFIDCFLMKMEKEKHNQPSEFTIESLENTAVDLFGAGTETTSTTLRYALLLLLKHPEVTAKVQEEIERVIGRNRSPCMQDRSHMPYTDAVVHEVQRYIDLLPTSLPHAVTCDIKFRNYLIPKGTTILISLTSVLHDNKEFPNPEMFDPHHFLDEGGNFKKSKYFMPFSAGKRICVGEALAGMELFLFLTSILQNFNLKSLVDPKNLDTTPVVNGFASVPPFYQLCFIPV

[17] = Oral bioavailability in Sprague-Dawley rat at 10 mg/kg measured up to 24 hrs by LC-MS/MS analysis; format: ADME, organism-based; details: in vivo
[18] = AUC (0 to t) in Sprague-Dawley rat at 5 mg/kg, iv measured up to 24 hrs by LC-MS/MS analysis; format: ADME, organism-based; parameters: dose 5 mg/kg, time < 24 hrs, route iv; details: in vivo
[19] = Volume of distribution at steady state in Sprague-Dawley rat at 5 mg/kg, iv measured up to 24 hrs by LC-MS/MS analysis; format: ADME, organism-based; details: in vivo, read-out: Vdss
[20] = Cytotoxicity against human HUVEC cells assessed as reduction in cell viability measured after 72 hrs by MTT assay; format: toxicity, cell-based
[21] = Efflux ratio of apparent permeability in MDCK cells; format: ADME, cell-based, Canis lupus familiaris; details: dog
[22] = test system: Mus musculus; assay: Anti-psoriatic activity in IMQ-induced BALB/c psoriasis mouse model assessed as reduction in skin thickening at 5 to 20 mg/kg, po by H and E staining based analysis; format: functional, organism-based; details: dose 5-20 mg/kg

## Brc1ccc(-c2nc3ccc(Br)cn3n2)cc1
[1]
  Tmax: 49.8 min
[2]
  IC50: > 10 µM
[3]
  IC50 at 72 h: > 300 µM
[4]
  Activity: Active
[5]
  Activity: Active
[6]
  MRT: 109 min
[7]
  AUC(0-t) at 24 h: 1400 ng·h/mL
[8]
  MRT: 53.4 min
[9]
  IC50: > 10 µM
[10]
  Activity: Active
[11]
  Activity: Active
[12]
  Activity: Active
[13]
  Activity: Active
[14]
  Activity: Active
[15]
  Activity: Active
[16]
  IC50: > 10 µM
[17]
  bioavailability: 15.1%
[18]
  AUC(0-t) at 24 h: 4640 ng·h/mL
[19]
  Vd: 1.02 L/kg
[20]
  IC50 at 72 h: > 300 µM
[21]
  efflux ratio: 2.34
[22]
  Activity: Active
